Assay results as given in ChEMBL document CHEMBL1201862, “PubChem BioAssay data set” (2004).
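Values below derive from 48-hour exposures of cells grown in 96-well plates, with endpoints linearly interpolated between the two concentrations bracketing the appropriate inhibition level. GI50 is the concentration that inhibits growth by half.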 Calls of active or inactive are those of the source. Cut-off read from the data, not from the text of the source: active = GI50 up to about 1.1 µM and inactive = higher.

Experiments:
Assay in all cases: NCI tumour cell line growth inhibition, 48 h
[1] = system: KM-20L2
[2] = system: IGROV-1
[3] = system: MOLT-4
[4] = system: HCT-15
[5] = system: U-251
[6] = system: OVCAR-8
[7] = system: NCI-H23
[8] = system: RPMI-8226
[9] = system: HOP-18
[10] = system: NCI-H460
[11] = system: CCRF-CEM
[12] = system: SF-539
[13] = system: HT-29
[14] = system: SW-620
[15] = system: SK-MEL-28
[16] = system: KM12
[17] = system: DMS-114
[18] = system: K562
[19] = system: OVCAR-3
[20] = system: SNB-19

SMILES	GI50 [1]	GI50 [2]	GI50 [3]	GI50 [4] [µM]	GI50 [5]	GI50 [6]	GI50 [7]	GI50 [8]	GI50 [9]	GI50 [10]	GI50 [11]	GI50 [12]	GI50 [13]	GI50 [14]	GI50 [15]	GI50 [16]	GI50 [17]	GI50 [18]	GI50 [19]	GI50 [20]
Nc1cc(-c2ccccc2)nn1-c1nsc2ccccc12	> 100 µM (inactive)	83.9 µM (inactive)	55.1 µM (inactive)	95.3	54.2 µM (inactive)	92.9 µM (inactive)	> 100 µM (inactive)	76.9 µM (inactive)	0.573 µM (active)	60.8 µM (inactive)	21.6 µM (inactive)	> 100 µM (inactive)	91.2 µM (inactive)	> 100 µM (inactive)	98.4 µM (inactive)	> 100 µM (inactive)	> 100 µM (inactive)	40.4 µM (inactive)	94.2 µM (inactive)	> 100 µM (inactive)
CCC(=C(C#N)C#N)c1cc(OC)c(OC)c(OC)c1	> 100 µM (inactive)	> 100 µM (inactive)	> 100 µM (inactive)	> 100	> 100 µM (inactive)	> 100 µM (inactive)	> 100 µM (inactive)	15.6 µM (inactive)	> 100 µM (inactive)	> 100 µM (inactive)	> 100 µM (inactive)	> 100 µM (inactive)	> 100 µM (inactive)	> 100 µM (inactive)	> 100 µM (inactive)	> 100 µM (inactive)	> 100 µM (inactive)	> 100 µM (inactive)	> 100 µM (inactive)	> 100 µM (inactive)
CC1(C)Cc2c(C#N)c(N)c3c(c2CO1)C(=O)OC3=O	> 100 µM (inactive)	> 100 µM (inactive)	> 100 µM (inactive)	> 100	> 100 µM (inactive)	> 100 µM (inactive)	> 100 µM (inactive)	> 100 µM (inactive)	> 100 µM (inactive)	> 100 µM (inactive)	> 100 µM (inactive)	> 100 µM (inactive)	> 100 µM (inactive)	> 100 µM (inactive)	> 100 µM (inactive)	> 100 µM (inactive)	> 100 µM (inactive)	> 100 µM (inactive)	> 100 µM (inactive)	> 100 µM (inactive)
